From patent US20140161767A1, “FOLLICLE-STIMULATING HORMONE (FSH)/LYTIC DOMAIN FUSION CONSTRUCTS AND METHODS OF MAKING AND USING SAME” (BOARD OF SUPERVISORS OF LOUISIANA STATE UNIVERSITY AND …, priority 2012, published 2014)

Tests used:
[1] = tested on: OVCAR-3 xenograft; test: OVCAR-3 ovarian cancer xenograft; type: in vivo
Protocol: The xenograft model of the OVCAR-3 human ovarian cancer cell line that present functional LHRH receptors was used in this study. OVCAR-3 represents a slow growing xenograft model and secretes the tumor marker (cancer antigen 125, or CA125). It's secretion can be used as treatment response and is a measure of drug activity.
In brief, Nu/Nu female mice, inbred strain, age 5 weeks (Harlan-Sprague Dawley) were injected subcutaneously with a NIH:OVCAR-3 cells/Matrigel suspension (4.6×10^6 cells/mouse). Treatment was started on day 33 after tumor cell injection when the tumors were established and continued on days 41 and 47. The doses for the 3 weekly injections were 0.02, 0.2 and 2 mg/kg body weight, given as a single bolus intravenous injection via lateral tail vein administered once a week for three weeks on days 33, 41 and 47. Necropsies were conducted on day 52. Data are presented as mean SEM. Arrows show dosing.
A group of 9 tumor bearing mice was sacrificed on day 33 and served as baseline group. All mice were necropsied 51-52 days after tumor cell injection. Tumor volumes and bodyweights were recorded twice weekly during the study, as well as overall veterinarian examination of mice was conducted.
Primary tumors, liver, kidney, pancreas, heart, lung, and spleen were collected, fixed in formalin and prepared for histological evaluation. Tumor weights were measured at necropsy, part of the tumors were frozen at −80° C. for LH/CG and LHRH receptor assay determination.
As a biomarker for drug activity, CA125 was determined in serum, collected from each individual mouse at necropsy using a Enzyme Linked Immunoassay for quantitative determination of ovarian cancer antigen CA125 (Assay kit Genway, Biotech, Inc. San Diego, Calif., Catalog #40-052-115009, # BC-1013 according to the manufacturer).
LHRH receptor levels were assessed from formalin fixed tumors. Quantitative immunoperoxidase image analysis was conducted with the Ventana Image Analysis System (VIAS) adjunctive computer assisted image analysis system functionally connected to an interactive microscope (Axio Imager). The quantitative analysis was conducted with the program for quantification of Her2/neu receptor that included morphometric and colorimetric analysis. Receptor status results were reported as percentage of cells showing positive staining of the LHRH receptors under the following criteria: 0 non-immunoreactive, 1+: 1-25% positive, 2+: 26 50% positive, 3+: 51-75% positive cells.

[2] = tested on: MDA-MB-435S; details: cited from earlier work
[3] = tested on: PC-3 xenograft; test: PC-3 prostate cancer xenograft, FSH-Phor18 fusion constructs; type: in vivo, mice; details: compared to vehicle
Protocol: This example describes in vivo studies in a mouse xenograft model of human prostate cancer (PC-3) with the three types and doses of (3-FSH-Phor18-fusion constructs (hFSH-β-33-53; hFSH-β-81-95 and hFSH-β-90-95).
Male Nu/Nu mice were injected subcutaneously with a PC-3/Matrigel suspension (1×10^6 cells). Mice were allocated into treatment groups of 8 mice per group on day 21 after tumor cell injection. Treatment started on day 1 and continued on day 5, 8, 12, 15 and 19. […] The doses for twice weekly injections were given as a single bolus injection.

Row | Compound | Tumor volume at necropsy [3] | further results
1 | N.N.[Cl][Pt][Cl] [Cisplatinum, reference compound] |  | Tumor weights at necropsy ([1]; Phor18-LHRH: 2 and 0.2 mg/kg vs saline and Phor18, p<0.05): not effective; Tumor volume ([1]; during treatment): no reduction
2 | COc1cccc2c1C(=O)c1c(O)c3c(c(O)c1C2=O)C[C@@](O)(C(=O)CO)C[C@@H]3O[C@H]1C[C@H](N)[C@H](O)[C@H](C)O1 [doxorubicin] |  | time to destroy human breast cancer cells in vitro [2]: 4 h
3 | CYTRDLVYKDPARPKIQKTCT [hFSH-β-33-53, unconjugated FSH beta chain fragment] | did not affect tumor volumes or tumor weights | 
4 | DSTDCT (Follitropin subunit beta; UniProt P01225 108-113, looked up, fragment) [hFSH-β-90-95, unconjugated FSH beta chain fragment] | did not affect tumor volumes or tumor weights | 
5 | QCHCGKCDSDSTDCT [hFSH-β-81-95, unconjugated FSH beta chain fragment] | did not affect tumor volumes or tumor weights | 
